From US11771779B2, “Non-metallic magnetic resonance contrast agent” (HADASIT MEDICAL RESEARCH SERVICES & DEVELOPMENT LIMITED, priority 2018, dated 2023)
Where two headings read alike, the source gives them in different places. Values belong to the molecule of their own block, whether it stands above or below them.

Legend:
[1] = for T1 in the 1st min of hyperpolarization decay: 0-60 s; for T1 in the 2nd min of hyperpolarization decay: 65-120 s
From the text: The dissolution process is detailed in the results section. […] Unless otherwise stated, the dissolved hyperpolarized solution was directly injected to a screw cup 10 mm NMR tube in a 5.8T NMR spectrometer via a PTFE line of about 2.4 m length with 3 s of He(g) chase. This line was wrapped with a heating tape (MRC, Holon, Israel) that enabled control over the temperature of the dissolution medium arriving to the NMR tube directly or to a collection tube in the fringe field of the spectrometer. ^15N-Nuclear Magnetic Resonance (NMR) spectra were continuously recorded immediately at the start of the dissolution process. […] In the experiments in body fluids and in experiments in which the hyperpolarized solution was first cooled to temperatures below room temperature, the dissolution media was first collected in a conical tube placed in the spectrometer's fringe field, and then was injected by syringe via a PEEK line to the NMR tube that was placed in the magnet.
For heating this hyperpolarized solution prior to arrival to the NMR tube, the PTFE line leading the hyperpolarized solution out of the spin polarization device was wrapped with a heating tape connected to a temperature controller (MRC, Holon, Israel). In this way, hyperpolarized solutions at temperatures higher than 26° C. could be obtained. For cooling the hyperpolarized solution, the heating tape was not turned on and the dissolution medium was mixed with 0 to 4 mL of D2O at 2° C. in a collection tube placed in ice-water bath in the fringe field of the magnet, prior to injection.
(§1) ^15N-NMR spectroscopy was performed in a 5.8T NMR spectrometer (RS2D, Mundolsheim, France), using a 10 mm broad-band NMR probe. The chemical shift scale of the spectra presented herein was calibrated based on a separate measurement of a [^15N2]urea standard sample (4M in H2O:D2O 80:20), carried out prior to hyperpolarized ^15N acquisitions, calibrating the [^15N2]urea signal to −306 ppm (relative to nitromethane). For enhancement factor calculation, the spectra were collected with a high flip angle of […] and a repetition time of 2 s. For T1 calculation, the spectra were acquired with a low flip angle of […] and a longer repetition time of 5-10 s.
The temperature in the NMR tube was continuously monitored using an NMR compatible temperature probe (Osensa, Burnaby, BC, Canada).
Determination of the T1 of the hyperpolarized sites was performed by curve fitting of the signal decay to the following equation: S(t)=S0·e^−t/T^1·(cos θ)^t/TR, in which TR, the time between excitations, and θ, the nutation angle of excitation, are known. Curve fitting was performed using Matlab (Mathworks, Natick, Mass., USA).

[2] = Description: as §1
The absolute enhancement factor was determined by comparing the maximal SNR of the magnitude signal multiplied by the linewidth at half-height obtained under hyperpolarized conditions to the intensity of the thermal equilibrium signal of the same sample (analyzed in the same way). The spectrum at thermal equilibrium was acquired with the same nutation angle under fully relaxed conditions. The same spectral acquisition parameters (spectral width, number of points, receiver gain) and processing parameters (apodization, zero-filling) were used in the analysis of both spectra and the thermal equilibrium signal was corrected for the number of scans.
in the same spectrometer used to record the hyperpolarized signal (5.8T), as described in the Methods section, and then projected to the expected enhancement factors at a common clinical scanner at 1.5T. Enhancement factors were calculated with reference to a spectrum of the same sample.

[3] = remark: listed apart in the source
Description: The small amounts of hyperpolarized solution were added to the blood sample at 0, 3, 6, 7.25, and 9.17 min from arrival of the solution to the collection tube.

[4] = remark: listed apart in the source
Description: For this reason it was important to determine also the potential conversion to hyperpolarized [^15N]nitrite in human saliva.
To test for the presence of [^15N]nitrite in this saline-saliva sample after the hyperpolarized state had decayed, the same sample was scanned at thermal equilibrium as well. The sample was scanned for 20 h, at room temperature.
(§2) In the next step, this solution was divided into 2 samples, in the following manner: 3 mL of this solution were combined with 0.75 mL of human saliva and the combined solution was scanned for 5 days. The rest of the solution (without human saliva) was kept outside the magnet at room temperature.

[5] = remark: listed apart in the source
Description: Then, 4.59 mL saline and 0.66 mL of D2O were added to this mixture. This solution was transferred to an NMR tube and scanned for 5 days. ^15N fully-relaxed spectra were recorded in blocks of about 4 h, whereas each block consisted of 720 averages with a 30 flip angle and a repetition time of 20 s.
as §2

[6] = tested on: breast tumor bearing mouse; details: 50 mM solution injected
[7] = mice; cited from earlier work
[8] = rats; cited from earlier work
[9] = dogs; up to 120 mg/kg daily i.v. for 28 days; cited from earlier work
[10] = previous results; cited from earlier work
[11] = Estimated ^15N T1 (FIG. 1); details: same order of magnitude as [^15N,D9]choline, called a speculation
From the text: FIG. 1 ^15N T1s of selected molecules in water (H2O) and D2O measured at 5.8 T; (a) denotes Na^15NO3; (b) denotes solid-state polarization in D2O and dissolution in D2O.; (c) denotes solid-state polarization in D2O and dissolution in H2O.; In this case, during the decay in solution the nitrogen positions are fully protonated as confirmed by the respective split pattern of the signal (not shown); a, b, and c—determined experimentally; (d) denotes estimation.

Compound: O=[15N+]([O-])[O-].[Na+] [[^15N]nitrate, sodium [^15N]nitrate]
- dependence of T1 on temperature ([1]; 34-50° C.): does not change
- increase of T1 in 2nd min versus 1st min ([1]; D2O): 43%
- T1 in the 1st min of hyperpolarization decay ([1]; D2O (n = 4)): 81 ± 20
- T1 in the 2nd min of hyperpolarization decay ([1]; D2O (n = 4)): 116 ± 7
- T1 in the 1st min of hyperpolarization decay ([1]; H2O (n = 2)): 99 ± 3
- T1 in the 2nd min of hyperpolarization decay ([1]; H2O (n = 2)): 99 ± 5
- ^15N polarization ([2]; corresponds to enhancement factor 5,298): 1%
- enhancement factor extrapolated to clinical MRI field of 1.5T ([2]; extrapolated from 5,298 at 5.8 T): about 20,500
- maximal enhancement factor ([2]; first signal in solution, 5.8 T, 2.5 h polarization at 1.5-1.6 K): 5,298
- percent polarization of the ^15N ([2]; physiological saline, HP vs TE spectra FIG. 3C/3D, 30° nutation angle): 0.6%
- T1 in the 1st min of hyperpolarization decay ([3]; Blood (n = 3), 0-60 s): 27 ± 0.4
- T1 in the 2nd min of hyperpolarization decay ([3]; Blood (n = 3), 65-120 s): 48 ± 1
- increase of T1 in 2nd min versus 1st min ([3]; blood): 78%
- T1 in blood ([3]; decay 1 of consecutive injections, error = 95% CI of fit): 29 ± 2 s
- T1 in blood ([3]; decay 2 of consecutive injections, error = 95% CI of fit): 30 ± 3 s
- T1 ([3]; saline/whole human blood mixture (4 mL + 10 mL), 25 mM, 32-36° C., error = 95% CI of fit): 29 ± 1 s
- T1 upon mixing with whole blood ([3]; three measurements in two different blood samples): 29 ± 1 s
- conversion rate of nitrate to nitrite [4]: about 3.8 mole per day per 0.75 mL of saliva
- signals in saline-saliva sample [4]: about equal signals of [^15N]nitrate and [^15N]nitrite
- T1 in the 1st min of hyperpolarization decay ([4]; Saline + saliva (n = 1), 0-60 s): 116
- signals in saline solution ([5]; 22 mM with glucose 2.7 mM in saline, scanned 5 days, room temperature, FIG. 5A): Only the [^15N]nitrate signal appears in the spectrum
- conversion to [^15N]nitrite in saline without saliva ([5]; additional 5 days scan started after 14 days at room temperature, FIG. 5C): no conversion to [^15N]nitrite was observed
- stable in saline solution ([5]; room temperature): at least 19 days
- mouse vascular system in ^15N MR image [6]: enhanced in the MR image
- tumor tissue in ^15N MR image [6]: enhanced in the MR image

Compound: C[N+](C)(C)CCOP(=O)([O-])OC[C@H](O)CO [GPC, glycerophosphocholine]
- safe dose for an intravenous injection [7]: 521 mg/kg
- safe dose for an intravenous injection [8]: 781 mg/kg
- effects of daily intravenous injection [9]: only mild and reversible mood changes and no mortality

Compound: [2H]C([2H])([2H])[15N+](CCO)(C([2H])([2H])[2H])C([2H])([2H])[2H] [[^15N,D9]choline]
- ^15N T1 [10]: about 6 min

- ^15N T1 (estimated) [11]: about 6 min
Compound: [2H]C([2H])([2H])[15N+](CCOP(=O)([O-])OCC(O)CO)(C([2H])([2H])[2H])C([2H])([2H])[2H] (stereo not drawn) [[^15N,D9]GPC, [^15N,D9]glycerophosphocholine]
